Columns and labels:
[1] = biological target: T1, mutant p53 in MDA-MB-231 breast cancer cells (Homo sapiens, UniProt P04637, R280K); assay: Immunoblot of mutant p53 in MDA-MB-231 cells treated with ITCs; format: cell-based; conditions: for depletion of mutant p53 (FIG. 3B-E): H596 20 μM / MDA-MB-231 10 μM ITCs
T1 construct: host or cells: MDA-MB-231
Excerpt: (§1) Human H596, A549, HCT116, MDA-MB-231, MDA-MB-468, MCF-7, DU145, MCF-10A, SW480, and SCC-4 cells were obtained from ATCC (Manassas, Va.). H1299-175H cells were kindly provided by Dr. Maria Laura Avantaggiati (Georgetown University). Cells were maintained in DMEM or RPMI-1640 medium supplemented with 10% FBS (Hyclone). […] 2,2-Diphenylethyl ITC, 4-phenoxybenzyl ITC, 4-methoxybenzyl ITC, 4-chlorobenzyl ITC, Dα-methylbenzyl ITC, trityl ITC, and 3-phenylpropyl ITC were purchased from Trans World Chemicals (Rockville, Md.). Erucin and 4-phenylbutyl ITC were from LKT Laboratories, Inc. (St. Paul, Minn.). […] The p53 DO-1 and β-actin antibodies were purchased from Santa Cruz Biotechnology (Santa Cruz, Calif.), horseradish peroxidase-labeled goat antimouse secondary antibodies were purchased from GE-Healthcare (Pittsburgh, Pa.), and Bio-Rad Protein Assay was from Bio-Rad (Hercules, Calif.).
(§2) Whole cell lysates were prepared in lysis buffer (20 mM HEPES, pH 7.4, 2 mM EGTA, 50 mM β-glycerol phosphate, 1% Triton X-100, 10% glycerol, 1 mM DTT, 1 mM PMSF, […], 1 mM Na3-VO4, and 5 mM NaF). For immunoblot analysis, equal amounts of protein were resolved on 4-12% NuPAGE BisTris gels (Invitrogen) and transferred to PVDF membranes (Millipore). The membranes were blocked with 5% milk in TBST and were then probed with p53 (DO-1) or β-actin antibody. Proteins were detected using enhanced chemiluminescence (ECL) reagents (GE Healthcare).

[2] = biological target: T2, mutant (G245C) p53 DNA-binding domain (Homo sapiens, UniProt P04637, G245C); assay: Monochlorobimane fluorometric cysteine binding assay; conditions: 100 μM ITC, 1 h, 32 C; compared with trityl ITC, cyclohexylmethyl ITC, SFN, AITC, and PITC (p<0.05)
T2 construct: made in house; host or cells: Escherichia coli BL21
Protocol: BL21 […] Escherichia coli were transformed with pET29b wild-type or mutant (G245C) p53 DNA binding domain (DBD) plasmids. The E. coli were then cultured in LB media supplemented with 100 μM ZnCl2 and 25 μg/mL kanamycin at 37° C. until OD600=0.6-0.8. Protein expression was induced by 0.1 mM isopropyl β-D-1-thiogalactopyranoside for 16 h at 37 gC for wild-type and 16 gC for mutant p53. Bacterial pellets were then harvested by centrifugation at 5000×g, 10 min, 4 gC, and lysed via sonication in 50 mM Tris, 50 mM KCl, 5 mM dithiothreitol, 1 mM PMSF, pH 7 buffer. The soluble fraction was passed through a Capto S cation exchange column (GE Healthcare) and eluted with 50 mM Tris, 200 mM KCl, 5 mM DTT, pH 7. Eluted protein was dialyzed overnight against a non-salt dialysis buffer (50 mM Tris, 5 mM DTT, pH 7) and loaded onto a HiTrap Heparin HP column (GE Healthcare). The p53 DBD was purified via a AKTApurifier-10 protein liquid chromatography system (GE Healthcare) with an increasing KCl salt gradient, and purity was tested by SDSPAGE and Coomassie blue staining. Purified protein was dialyzed in PBS, and protein concentrations were determined prior to performing fluorescence experiments.
In a white 96-well plate, 100 μL of purified mutant (G245C) p53 DNA-binding domain protein in PBS was treated with DMSO, 100 μM ITCs in DMSO, or 500 μM iodoacetamide (positive binding control). An additional well containing 100 μL of PBS was used to determine background. Samples were incubated with compounds in the dark for 1 h at 32 gC, after which […] of 10 mM monochlorobimane was added (in the dark), and samples were further incubated in the dark at 32 gC for 30 min. Fluorescence readings were then obtained using a BIO-TEK Synergy HT plate reader (λex 380 nm; λem 485 nm).

[3] = tested on: MDA-MB-231 breast cancer cells; assay: FITC-annexin V / propidium iodide apoptosis assay; format: cell-based, Human; conditions: MDA-MB-231, 10 μM, 24 h; for induction of apoptosis vs DMSO: p<0.05
Protocol: Then, 100 μL of each sample was added to a 5 mm tube, and the annexin V apoptosis kit protocol was followed. Samples were immediately analyzed with flow cytometry.

[4] = biological target: T3, mutant p53 protein in H596 (G245C) non-small-cell lung cancer cells (Homo sapiens, UniProt P04637, G245C); assay: Immunoblot of mutant p53 protein in H596 cells; format: cell-based
T3 construct: host or cells: H596
Excerpt: as §1, §2

SMILES	depletion of mutant p53 (FIG. 3B-E) [1]	binding affinity for mutant (G245C) p53 DBD (free thiols, relative fluorescence) [2]	induction of apoptosis vs DMSO [3]	further results
S=C=NCC(c1ccccc1)c1ccccc1 [2,2-diphenylethyl ITC, 2,2-diphenylethyl isothiocyanate]	deplete mutant p53	greater binding affinities	greater induction of apoptosis	rank as depletor of mutant p53 among ITCs studied ([1]; FIG. 3B-E): most potent; rank as inducer of apoptosis ([3]; p<0.05 compared with BITC): strongest inducer of apoptosis
S=C=NCCCc1ccccc1 [3-PPITC, 3-phenylpropyl ITC]	deplete mutant p53	greater binding affinities	greater induction of apoptosis	
S=C=NCCCCc1ccccc1 [4-PBITC, 4-phenylbutyl ITC]	deplete mutant p53		greater induction of apoptosis	
S=C=NCc1ccc(Cl)cc1 [4-chlorobenzyl ITC]		greater binding affinities		
COc1ccc(CN=C=S)cc1 [4-methoxybenzyl ITC]		greater binding affinities		
S=C=NCc1ccccc1 [BITC, benzyl isothiocyanate]	deplete mutant p53	greater binding affinities	greater induction of apoptosis	level of mutant p53 ([4]; H596, 10 μM, 2 h): significantly reduced; depletion of mutant p53 at equimolar concentrations ([4]; H596, 20 μM ITCs, 24 h, compared with DMSO control): approximately the same extent; depletion of mutant p53 at equimolar concentrations ([1]; MDA-MB-231, 10 μM ITCs, 24 h, compared with DMSO control): approximately the same extent
CNCCc1ccccc1 [NMPEA, N-methylphenethylamine, reference compound]				mutant p53 protein level ([4]; H596, 15 μM, up to 24 h): failed to alter; mutant p53 protein level ([4]; H596, 60 μM for 2 h): failed to alter
